For 22 compounds, IC50 results are on record in US10508085B2, “Compounds and methods for IDO and TDO modulation, and indications therefor” (Plexxikon Inc., priority 2016, dated 2019).

For experiment [1], the target named is T1, human IDO (IDO1-expressing HEK293 cells) (Homo sapiens, UniProt P14902).
T1 construct: expressed in transfected cells
Description: Cell based kynurenine assay, IDO1-expressing HEK293 cell clones. The gist of the method: (§1)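 Steps: seed IDO1- or TDO-expressing HEK293 cells at 2.5×10^4 per well; add compound dilutions; incubate 24 h; transfer supernatant and determine kynurenine; derive IC50 via nonlinear regression of percent inhibition.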

The target in experiment [2] is T2, Human Tryptophan 2,3-dioxygenase (TDO) (Homo sapiens, UniProt P48775).
T2 construct: His tag (N); made in house; host or cells: E. coli
Description: Human TDO enzymatic assay (kynurenine level). In kind it is biochemical. The gist of the method:
(§2)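 Reactions were stopped with TCA, converting N-formylkynurenine to kynurenine for quantitation, with IC50 by nonlinear regression. IDO: 6 nM enzyme, 10 μM L-Trp, 20 min RT. TDO: 1 nM enzyme, 350 μM L-Trp, 70 min RT, both in pH 6.5 buffer.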

Experiment [3] has as its target T3, Human Indoleamine 2,3-dioxygenase (IDO) (Homo sapiens, UniProt P14902).
T3 construct: His tag (N); made in house; host or cells: E. coli
As to the kind of experiment: Human IDO enzymatic assay (kynurenine level). The experiment is classed as biochemical. In a few lines:
as §2

The target in experiment [4] is T4, human TDO (TDO-expressing HEK293 cells) (Homo sapiens, UniProt P48775).
T4 construct: expressed in transfected cells
Description: Cell based kynurenine assay, TDO-expressing HEK293 cell clones. The gist of the method: as §1

Setting [5] is: IDO1-expressing HEK293 cells, 24 hours, geometric mean, read-out: HEK293 IDO1 Kynurenine GMean IC50 (μM) (Cellular Assay).
The mark [6] stands for this setting: 1 nM TDO, 350 μM L-Trp, geometric mean, read-out: TDO GMean: IC50 (μM) (Biochemical Assay).
Setting [7] is: 6 nM IDO, 10 μM L-Trp, geometric mean, read-out: IDO1 GMean: IC50 (μM) (Biochemical Assay).
[8] abbreviates: TDO-expressing HEK293 cells, 24 hours, geometric mean, read-out: HEK293 TDO Kynurenine GMean IC50 (μM) (Cellular Assay).
[9] abbreviates: IDO1-expressing HEK293 cells, 24 hours incubation, geometric mean, read-out: HEK293 IDO1 Kynurenine GMean IC50 (μM) (Cellular Assay).
[10] abbreviates: TDO-expressing HEK293 cells, 24 hours incubation, geometric mean, read-out: HEK293 TDO Kynurenine GMean IC50 (μM) (Cellular Assay).

Where two headings read alike, the source gives them in different places.

T4 sequence (P48775 whole entry): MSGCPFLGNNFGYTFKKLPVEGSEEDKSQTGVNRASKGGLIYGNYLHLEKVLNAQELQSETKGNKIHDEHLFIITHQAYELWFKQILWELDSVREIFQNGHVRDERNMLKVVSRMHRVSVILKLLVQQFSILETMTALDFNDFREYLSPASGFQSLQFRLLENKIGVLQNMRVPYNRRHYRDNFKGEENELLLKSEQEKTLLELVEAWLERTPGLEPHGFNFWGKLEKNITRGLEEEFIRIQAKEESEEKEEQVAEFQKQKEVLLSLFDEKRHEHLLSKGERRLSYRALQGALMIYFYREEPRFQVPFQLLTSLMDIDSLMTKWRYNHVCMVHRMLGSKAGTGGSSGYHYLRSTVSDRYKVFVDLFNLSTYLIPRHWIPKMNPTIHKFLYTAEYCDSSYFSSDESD
T2 sequence (P48775 whole entry): as above
T3 sequence (P14902 whole entry): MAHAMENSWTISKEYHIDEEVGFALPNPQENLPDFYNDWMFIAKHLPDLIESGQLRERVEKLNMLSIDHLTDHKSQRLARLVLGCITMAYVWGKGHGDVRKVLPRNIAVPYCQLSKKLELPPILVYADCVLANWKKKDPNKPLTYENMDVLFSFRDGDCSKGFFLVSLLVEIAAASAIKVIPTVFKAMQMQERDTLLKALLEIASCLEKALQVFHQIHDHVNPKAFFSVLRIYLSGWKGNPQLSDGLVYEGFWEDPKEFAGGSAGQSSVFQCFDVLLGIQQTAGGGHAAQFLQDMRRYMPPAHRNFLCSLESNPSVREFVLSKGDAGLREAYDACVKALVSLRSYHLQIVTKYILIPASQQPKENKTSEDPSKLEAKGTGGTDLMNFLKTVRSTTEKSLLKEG
T1 sequence (P14902 whole entry): as above

Take `CC(C)(C1CCN(C(=O)CC2CCS(=O)(=O)CC2)CC1)C(O)c1cc(Cl)cc2cn[nH]c12` (stereo not drawn) [Compound P-0448, 1-(4-(1-(5-chloro-1H-indazol-7-yl)-1-hydroxy-2-methylpropan-2-yl)piperidin-l-yl)-2-(1,1-dioxidotetrahydro-2H-thiopyran-4-yl)ethan-1-one]: the IC50 in experiment [1] (setting [5]), in experiment [2] (setting [6]), in experiment [3] (setting [7]) and in experiment [4] (setting [8]) was 0.0001 to 10 µM in each case.
With `OC(c1cc(Cl)cc2cn[nH]c12)C12CCC(C(F)F)(CC1)CC2` (stereo not shown) [Compound P-0269, (5-chloro-1H-indazol-7-yl)(4-(difluoromethyl)bicyclo[2.2.2]octan-1-yl)methanol], the IC50 in experiment [1] (setting [9]), in experiment [2] (setting [6]), in experiment [3] (setting [7]) and in experiment [4] (setting [10]) was 0.0001 to 10 µM each time.
Turning to `CC(C)(C)C(O)c1c(Cl)c(Cl)cc2cn[nH]c12` (stereo not shown) [Compound P-0239, 1-(5,6-dichloro-1H-indazol-7-yl)-2,2-dimethylpropan-1-ol], the IC50 in experiment [1] (setting [9]), in experiment [2] (setting [6]), in experiment [3] (setting [7]) and in experiment [4] (setting [10]) was 0.0001 to 10 µM each time.
Regarding `CC(C)(C)OC(=O)N1CCC(C(C)(C)[C@@H](O)c2cc(Cl)cc3cn[nH]c23)CC1` [Compound P-0338, tert-butyl (R)-4-(1-(5-chloro-1H-indazol-7-yl)-1-hydroxy-2-methylpropan-2-yl)piperidine-1-carboxylate], the IC50 was > 10 µM in experiment [1] (setting [9]), 0.0001 to 10 µM in experiment [2] (setting [6]), 0.0001 to 10 µM in experiment [3] (setting [7]) and 0.0001 to 10 µM in experiment [4] (setting [10]).
Regarding `OC1(c2c(Cl)c(Cl)cc3cn[nH]c23)CC2(CCC2)C1` [Compound P-0036, 2-(5,6-dichloro-1H-indazol-7-yl)spiro[3.3]heptan-2-ol], the IC50 is 0.0001 to 10 µM in experiment [1] (setting [9]), 0.0001 to 10 µM in experiment [2] (setting [6]), 0.0001 to 10 µM in experiment [3] (setting [7]) and > 10 µM in experiment [4] (setting [10]).
Consider `CC(C)(C1CCCC1)C(O)c1cc(Cl)cc2cn[nH]c12` (stereo not shown) [Compound P-0199, 1-(5-chloro-1H-indazol-7-yl)-2-cyclopentyl-2-methylpropan-1-ol], for which the IC50 in experiment [1] (setting [9]), in experiment [2] (setting [6]), in experiment [3] (setting [7]) and in experiment [4] (setting [10]) was 0.0001 to 10 µM throughout.
Turning to `CC(C)(C1CCOCC1)C(O)c1cc(Cl)cc2[nH]ncc12` (stereo not shown) [drawing 817], the IC50 stood at 6.94 µM in experiment [1] (cellular assay, HEK293, 24 hours, comparative examples, read-out: hIDO1); 0.08 µM in experiment [2] (biochemical assay, comparative examples, 4,6 versus 5,7 indazole, read-out: TDO); 0.95 µM in experiment [3] (biochemical assay, comparative examples, 4,6 versus 5,7 indazole, read-out: IDO1); 0.01 µM in experiment [4] (cellular assay, HEK293, 24 hours, comparative examples, read-out: hTDO).
Take `CC(C)(C1CCN(C(=O)c2ccccn2)CC1)C(O)c1cc(Cl)cc2cn[nH]c12` (stereo not shown) [Compound P-0365, (4-(1-(5-chloro-1H-indazol-7-yl)-1-hydroxy-2-methylpropan-2-yl)piperidin-1-yl)(pyridin-2-yl)methanone]: the IC50 in experiment [1] (setting [9]), in experiment [2] (setting [6]), in experiment [3] (setting [7]) and in experiment [4] (setting [10]) was 0.0001 to 10 µM in each case.
Regarding `CC(C)(C1CCN(C(=O)Nc2ccc(OC(F)(F)F)cc2)CC1)C(O)c1cc(Cl)cc2cn[nH]c12` (stereo not shown) [Compound P-0403, 4-(1-(5-chloro-1H-indazol-7-yl)-1-hydroxy-2-methylpropan-2-yl)-N-(4-(trifluoromethoxy)phenyl)piperidine-1-carboxamide], the IC50 in experiment [1] (setting [9]), in experiment [2] (setting [6]), in experiment [3] (setting [7]) and in experiment [4] (setting [10]) was 0.0001 to 10 µM each time.
For the compound `CC(C)(C1CCN(C(=O)NC2CCOCC2)CC1)C(O)c1cc(Cl)cc2cn[nH]c12` (stereo not shown) [Compound P-0451, 4-(1-(5-chloro-1H-indazol-7-yl)-1-hydroxy-2-methylpropan-2-yl)-N-(tetrahydro-2H-pyran-4-yl)piperidine-1-carboxamide], the IC50 in experiment [1] (setting [5]), in experiment [2] (setting [6]), in experiment [3] (setting [7]) and in experiment [4] (setting [8]) was 0.0001 to 10 µM throughout.
Consider `OC(c1cc(Cl)cc2cn[nH]c12)C12CCC(CC1)CC2` (stereo not shown) [Compound P-0208, bicyclo[2.2.2]octan-1-yl(5-chloro-1H-indazol-7-yl)methanol], for which the IC50 in experiment [1] (setting [9]), in experiment [2] (setting [6]), in experiment [3] (setting [7]) and in experiment [4] (setting [10]) was 0.0001 to 10 µM throughout.
Regarding `CC(C)(C1CCN(C(=O)NC2CCC2)CC1)[C@H](O)c1cc(Cl)cc2cn[nH]c12` [Compound P-0552, (S)-4-(1-(5-chloro-1H-indazol-7-yl)-1-hydroxy-2-methylpropan-2-yl)-N-cyclobutylpiperidine-1-carboxamide], the IC50 in experiment [1] (setting [5]), in experiment [2] (setting [6]), in experiment [3] (setting [7]) and in experiment [4] (setting [8]) was 0.0001 to 10 µM in each case.
On to `OC(CC1CCCCC1)c1cccc2cncn12` (stereo not drawn) [Compound P-0079, 2-cyclohexyl-1-(imidazo[1,5-a]pyridin-5-yl)ethan-l-ol], for which the IC50 in experiment [1] (setting [9]) was 0.0001 to 10 µM; in experiment [2] (setting [6]), 0.0001 to 10 µM; in experiment [3] (setting [7]), 0.0001 to 10 µM; in experiment [4] (setting [10]), > 10 µM.
Regarding `CC(C)(C(O)c1cc(Cl)cc2cn[nH]c12)[C@H]1C[C@H]2CC[C@@H](C1)N2C(=O)Nc1ccc(F)cc1` (stereo partly drawn) [Compound P-0440, (1R,3r,5S)-3-(1-(5-chloro-1H-indazol-7-yl)-1-hydroxy-2-methylpropan-2-yl)-N-(4-fluorophenyl)-8-azabicyclo[3.2.1] octane-8-carboxamide], the IC50 in experiment [1] (setting [5]), in experiment [2] (setting [6]), in experiment [3] (setting [7]) and in experiment [4] (setting [8]) was 0.0001 to 10 µM each time.
`CC1(C)CC(O)(c2cc(Cl)cc3cn[nH]c23)CCN1S(C)(=O)=O` (stereo not shown) [Compound P-0046, 4-(5-chloro-1H-indazol-7-yl)-2,2-dimethyl-1-(methylsulfonyl)piperidin-4-ol]: the IC50 was > 10 µM in experiment [1] (setting [9]), 0.0001 to 10 µM in experiment [2] (setting [6]), 0.0001 to 10 µM in experiment [3] (setting [7]) and > 10 µM in experiment [4] (setting [10]).
With `CC(C)(C1CCN(C(=O)c2cccnc2)CC1)C(O)c1c(F)c(Cl)cc2cn[nH]c12` (stereo not shown) [Compound P-0418, (4-(1-(5-chloro-6-fluoro-1H-indazol-7-yl)-1-hydroxy-2-methylpropan-2-yl)piperidin-1-yl)(pyridin-3-yl)methanone], the IC50 in experiment [1] (setting [5]), in experiment [2] (setting [6]), in experiment [3] (setting [7]) and in experiment [4] (setting [8]) was 0.0001 to 10 µM in each case.
Take `CC(C)(C1CCN(C(=O)Nc2ccccc2)CC1)[C@@H](O)c1cc(Cl)cc2cn[nH]c12` [Compound P-0431, (R)-4-(1-(5-chloro-1H-indazol-7-yl)-1-hydroxy-2-methylpropan-2-yl)-N-phenylpiperidine-1-carboxamide]: the IC50 lay within 0.0001 to 10 µM in experiment [1] (setting [5]), 0.0001 to 10 µM in experiment [2] (setting [6]), 10 to 100 µM in experiment [3] (setting [7]) and 0.0001 to 10 µM in experiment [4] (setting [8]).
For `CN1CCC(C(C)(C)C(O)c2cc(Cl)cc3cn[nH]c23)CC1` (stereo not shown) [Compound P-0318, 1-(5-chloro-1H-indazol-7-yl)-2-methyl-2-(1-methylpiperidin-4-yl)propan-1-ol], the IC50 in experiment [1] (setting [9]), in experiment [2] (setting [6]), in experiment [3] (setting [7]) and in experiment [4] (setting [10]) was 0.0001 to 10 µM each time.
Regarding `CNS(=O)(=O)N1CCC(C(F)(F)C(O)c2cc(Cl)cc3cn[nH]c23)CC1` (stereo not shown) [Compound P-0330, 4-(2-(5-chloro-1H-indazol-7-yl)-1,1-difluoro-2-hydroxyethyl)-N-methylpiperidine-1-sulfonamide], the IC50 in experiment [1] (setting [9]), in experiment [2] (setting [6]), in experiment [3] (setting [7]) and in experiment [4] (setting [10]) was 0.0001 to 10 µM throughout.
`O=S(=O)(NC1CC(O)(c2cc(Cl)cc3cn[nH]c23)C1)C1CC1` (stereo not shown) [Compound P-0045, N-(3-(5-chloro-1H-indazol-7-yl)-3-hydroxycyclobutyl)cyclopropanesulfonamide]: the IC50 in experiment [1] (setting [9]) is > 10 µM; in experiment [2] (setting [6]) it was 0.0001 to 10 µM; in experiment [3] (setting [7]), 10 to 100 µM; in experiment [4] (setting [10]), 0.0001 to 10 µM.
Turning to `CC(C)(C)OC(=O)N1CC2CCC(C1)C2CC(O)c1cc(Cl)cc2cn[nH]c12` (stereo not shown) [Compound P-0273, tert-butyl 8-(2-(5-chloro-1H-indazol-7-yl)-2-hydroxyethyl)-3-azabicyclo[3.2.1]octane-3-carboxylate], the IC50 in experiment [1] (setting [9]), in experiment [2] (setting [6]), in experiment [3] (setting [7]) and in experiment [4] (setting [10]) was 0.0001 to 10 µM in each case.
For `OCC12CCC(C(O)c3cc(Cl)cc4cn[nH]c34)(CC1)CC2` (stereo not shown) [Compound P-0328, (5-chloro-1H-indazol-7-yl)(4-(hydroxymethyl)bicyclo[2.2.2]octan-1-yl)methanol], the IC50 in experiment [1] (setting [9]), in experiment [2] (setting [6]), in experiment [3] (setting [7]) and in experiment [4] (setting [10]) was 0.0001 to 10 µM each time.
